This test deals with Salmonella Enterica ATCC 10708. Put plainly: Antimicrobial efficacy on inoculated chicken drumettes (log10 reduction, nBPW neutralizer; Colby synergy). It is filed as cell-based. The conditions noted are these: for Observed Average Reduction (AntiLog10 value): antiLog10 of the observed log10 reduction; for Observed Average Reduction (AntiLog10 value) / Observed Average Log10 Reduction: Salmonella Enterica ATCC 10708; for Observed Average Log10 Reduction: chicken drumettes soaked 90 seconds in composition, recovery in nBPW neutralizer.

Each structure is given as a SMILES string.

On to `CC(=O)OO` [PAA, peracetic acid], for which the “Observed Average Reduction (AntiLog10 value)” value is given as 14.15 and the “Observed Average Log10 Reduction” value is 1.16 log10. Take `CC(O)CO` (centres unmarked) [Propylene glycol]: the “antimicrobial efficiency of the organic solvent by itself” value (by itself) is listed as “did not provide any antimicrobial efficiency”. Consider `CCC(=O)O` [propionic acid], for which the “Observed Average Reduction (AntiLog10 value)” value amounted to 6.17 and the “Observed Average Log10 Reduction” value was 0.79 log10.

These data come from US20240298638A1, “METHODS AND COMPOSITIONS FOR REDUCING MICROBIAL CONTAMINANTS DURING POULTRY PROCESSING” (DIVERSEY, INC., priority 2020, published 2024).
